Laboratory results taken from publication PMC7819857, “Identification of Inhibitors of Integrin Cytoplasmic Domain Interactions With Syk” (Frontiers in Immunology, 2021).

Legend:
[1] = tested on: IL-1β gene expression in THP-1 cells; assay: Quantitative PCR of adhesion-dependent IL-1β expression in THP-1 cells; type: cell-based, human; conditions: 100 µM loaded cells, plated on CS-1, 4 h, qPCR
Protocol: (§1) THP-1 cells (2 × 10^6 per treatment group) that were glycerol loaded with ceftazidime (100 µM) or vehicle control (as described above) were plated on CS-1 peptide (10 µg/ml; 6-well plates) in serum-free RPMI-1640. Control cells were also kept in suspension. Plated and suspension cells were incubated for 4 h at 37°C. After incubation, the medium was removed, and RNA was isolated from cells with a Qiagen RNA extraction kit. After cDNA synthesis, quantitative real-time PCR was used to determine the relative gene expression levels of IL-1β and monocyte chemoattractant protein (MCP)-1 in THP-1 cells adhered to CS-1 in the presence of vehicle or ceftazidime relative to that of cells in suspension. The cycle threshold (Ct) results generated were analyzed according to the comparative Ct method (2^-ΔΔCt), where ΔCt is the difference between the CT value of target versus GAPDH control, and ΔΔCt is the difference between the ΔCt values of a given treated adherent cell sample and that of cells in suspension. Statistical differences between the two treatment groups for each target were determined by a two-tailed, unpaired Student t test using GraphPad Prism 7.04 statistical software.
(§2) Figure 6 Selective inhibition of integrin signaling by ceftazidime. […] Data are expressed as mean ± range from duplicate determinations. […] Kinase activity is expressed as percent of maximum signal. […]

[2] = tested on: MCP-1 gene expression in THP-1 cells; assay: Quantitative PCR of adhesion-dependent MCP-1 expression in THP-1 cells; type: cell-based, human; conditions: 100 µM loaded cells, plated on CS-1, 4 h, qPCR
Protocol: as §1, §2

[3] = molecular target: T1, wild-type full-length Syk : integrin β3 cytoplasmic domain (Homo sapiens, UniProt P43405); assay: Peptide affinity pull-down of Syk from THP-1 whole cell lysate on β3 peptide beads; type: binding; conditions: bβ3(fl) on neutravidin agarose beads, western blot
T1 construct: endogenous in cells; host or cells: THP-1 whole cell lysate
Protocol: THP-1 cells were washed in PIPES buffer (10 mM PIPES, 50 mM NaCl pH 6.8) and resuspended at 10 × 10^6 cells/ml in PIPES lysis buffer [PIPES buffer containing 1% Triton X-100, 1 mM EDTA, 1 mM Na3VO4, 50 mM NaF, 150 mM sucrose, protease inhibitors (cOmplete, Mini, EDTA-free Protease Inhibitor Cocktail, Roche, cat#11836170001)] and 0.1 mM N-ethylmaleimide. The cells were incubated overnight in lysis buffer at 4°C with end-over-end rotation. Lysates were then passed through a 21-gauge needle and centrifuged at 13,000 × g for 30 min at 4°C. Lysate protein concentrations were determined by using Quick Start Bradford Dye reagent (BioRad cat#5000202). […] Eluted samples were run on SDS-PAGE (4–20%, BioRad, cat# 4561093) and immunoblotted for Syk using anti-Syk antibody at 1:1,000 (4D10; SantaCruz) dilution followed by GAM-HRP at 1:5,000 and detected with SuperSignal West Pico (Thermo Scientific, cat# 34580). Western blots were scanned, and band intensity was measured using ImageJ ([31]) to compare and determine the effect of the drug on Syk/β3 binding. […]
Figure 3 Dose-response curves in primary and orthogonal screens. […] Data are expressed as mean fluorescence (Fl520) ± range from duplicates, and one representative experiment of “n” performed is shown. […] Data are expressed as mean abs450 ± SEM from triplicate determinations, and one of three representative experiments is shown. […]

CC(C)(O/N=C(\C(=O)N[C@@H]1C(=O)N2C(C(=O)[O-])=C(C[n+]3ccccc3)CS[C@H]12)c1csc(N)n1)C(=O)O [ceftazidime]
adhesion-dependent induction of the expression of IL-1β [1]: significantly inhibited
adhesion-dependent induction of the expression of MCP-1 [2]: significantly inhibited
inhibition of wild-type Syk interaction with integrin β3 cytoplasmic domains [3]: inhibited
